The structures appear in SMILES notation.

Test [1] is described as follows: Low fat milk evaluation of creamyness/mouthfeel enhancement. The following applies: 4 ppm in low fat milk (1.5-2% fat), compared to base without compound. The source says:
Low fat milk (1.5-2% fat) was used as a base to evaluate the creamyness/mouthfeel enhancement properties of the compounds. Samples with compound were compared to the base without compound added.

A short description of test [2]: Skim milk evaluation of creamyness/mouthfeel enhancement. The following applies: 10 ppm in skim milk, compared to base without compound. The source says:
Skim milk was used as a base to evaluate the creamyness/mouthfeel enhancement properties of the compounds. Samples with compound were compared to the base without compound added.

Test [3] in a line: Sweetened yogurt evaluation of creamyness/mouthfeel enhancement. To be noted: 10 ppm in yogurt with 5% sucrose and 0.03% creamy mouthfeel flavor, compared to base without compound. The source says:
Sweetened yogurt with flavor was used as a base to evaluate the creamyness/mouthfeel enhancement properties of the compounds. The yogurt base was sweetened with 5% sucrose and 0.03% creamy mouthfeel flavor (Givaudan 97584209). Samples with compound were compared to the sweetened base without compound added.

Test [4] in a line: Kefir evaluation of creamyness/mouthfeel enhancement. The following applies: compared to base without compound. The source says: A commercial Kefir drink was used as a base to evaluate the creamyness/mouthfeel enhancement properties of the compounds. Samples with compound were compared to the base without compound added.
The nature of test [5]: Sucralose evaluation of bitter masking. To be noted: compared to base without compound. As to the method:
Compounds were prepared in a sucralose base containing 80 ppm sucralose in water. Compounds were calculated in the base and compared to the base without may compound added.
A solution containing 80 ppm sucralose in water was used as a base to evaluate the bitter masking properties of the compounds. Samples with compound were compared to the base without compound added.

Test [6] is described as follows: Rebaudioside A evaluation (taste descriptors). The following applies: compared to base without compound. As for the experimental part:
A tasting base was prepared with 300 ppm Rebaudioside A in ater. Compounds were added to the base in the concentrations indicated in the table and compared to the base without compound added.

A short description of test [7]: Red Bull drink evaluation of masking. The following applies: compared to base without compound. As for the experimental part: A commercial Red Bull™ Energy drink was used as a base to evaluate the masking properties of the compounds. Compounds were added to the base in the concentrations indicated in the table and compared to the base without compound added.
The conditions of test [8]: J. Agr. Food. Chem. 2007, 55, 9634-9645; cited from earlier work.
[9] abbreviates: 5 ppm in commercial Kefir drink.
The mark [10] stands for this setting: 2 ppm in 80 ppm sucralose in water.
Where [11] appears, read: 5 ppm in 80 ppm sucralose in water.
The mark [12] stands for this setting: 10 ppm in 80 ppm sucralose in water.
[13] abbreviates: 2 ppm in 300 ppm Rebaudioside A in water.
Setting [14] is: 5 ppm in 300 ppm Rebaudioside A in water.
[15] abbreviates: 10 ppm in 300 ppm Rebaudioside A in water.
Where [16] appears, read: 2 ppm in commercial Kefir drink.
[17] abbreviates: 10 ppm in Red Bull Energy drink.

`CCC(O)CCCCCCC(=O)O` (stereo not drawn) [8-Hydroxy decanoic acid, 8-hydroxydecanoic Acid]: the “Taste Description” value in test [1] is given as “Slight mouthfeel”; in test [2], “Some mouthfeel effect”; in test [3], “Lingering waxy profile, fattier”; in test [4] (setting [9]), “Creamy. fatty mouthfeel. good”; in test [5] (setting [10]), “Less lingering, more”; in test [5] (setting [11]), “Velvety mouthfeel. very full”. In addition, the “Taste Description” value in test [5] (setting [12]) is given as “No masking, adds”; in test [6] (setting [13]), “Less bitter, less bitter”; in test [6] (setting [14]), “Less bitter, less bitter”; in test [6] (setting [15]) it was “Helps overall especially”.

`CCC(O)CCCC1CCC(=O)O1` (stereo not drawn) [8-hydroxy gamma decalactone, 5-(4-hydroxyhexyl)dihydrofuran-2(3H)-one]: the “Taste Description” value is “Some mouthfeel effect” in test [2]; “Much creamier, fattier, fuller,” in test [4] (setting [16]); “more mid body, creamier” in test [4] (setting [9]); “Floral, little masking, waxy,” in test [5] (setting [10]); “Some effect” in test [5] (setting [11]); “Masks sweetness, floral,” in test [5] (setting [12]). For the same molecule, the “Taste Description” value was “Masks lots of bitter, less” in test [6] (setting [13]); “Some masking” in test [6] (setting [14]); “High offnote, masks more” in test [6] (setting [15]); “Good masking. less sweet” in test [7] (5 ppm in Red Bull Energy drink); “Offnote, similar to control” in test [7] (setting [17]).

As to `CC(O)CCCCCCCC(=O)O` (stereo not drawn) [9-Hydroxy decanoic acid, 9-hydroxydecanoic Acid], the “Taste Description” value is “Slightly more mouthfeel” in test [1]; “Some mouthfeel effect” in test [2]; “Lingering waxy profile, fattier” in test [3]; “Very creamy, slight mouthfeel, more” in test [4] (setting [16]); “Very creamy, mouth-coating, smooth,” in test [4] (setting [9]); “Less bitter. lingering, more” in test [5] (setting [10]). Moreover, the “Taste Description” value is reported as “Backend masks lingering” in test [5] (setting [11]); “Nice mouthfeel, full upfront” in test [5] (setting [12]); “Less bitter, lingering, more” in test [6] (setting [13]); “Less bitter, lingernig, waxy,” in test [6] (setting [14]); “Offtaste, not much” in test [6] (setting [15]); “Masks better than control” in test [7] (setting [17]).

On to `CC(O)CCCCC1CCC(=O)O1` (stereo not drawn) [9-hydroxy gamma decalactone, 5-(5-hydroxyhexyl)dihydrofuran-2(3H)-one], for which the “Taste Description” value in test [2] is on record as “No mouthfeel”; in test [4] (setting [16]), “More creamy than control, upfront”; in test [4] (setting [9]), “More dairy note, more mid body”; in test [5] (setting [10]), “Floral, little masking, waxy,”; in test [5] (setting [11]), “Some effect”; in test [5] (setting [12]), “High offnote. masks”. Further, the “Taste Description” value in test [6] (setting [13]) was “Slight fatty note at end”; in test [6] (setting [14]), “Not much”; in test [6] (setting [15]), “High offnote, changes”; in test [7] (5 ppm in Red Bull Energy drink), “Less sweetness, strong linger”; in test [7] (setting [17]), “Good masking, offnote”.

On to `CCCCCCCCCC1CCCC(=O)O1` (stereo not drawn) [δ-tetradecalactone], for which, in test [8], the “effect on cream flavour / creaminess” value is recorded as “able to enhance the retronasal cream flavour”.

Source of the values: patent US9480280B2, “Taste modifiers” (Givaudan S.A., priority 2012, dated 2016).
